Drawing on PubChem BioAssay AID977624 (Broad Institute, 2014), this text covers AC50 for 85 compounds.

The test system of the experiment is E. coli wild-type GFP strain growth, fluorescence, 24 h. As to the kind of experiment: growth inhibition of wild-type GFP E. coli, dose response, h34 mutant RFP, cherry-pick (AID 977624).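 Note: wild-type GFP strain co-cultured with humanized h34 ribosome RFP strain in same well.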

Inconclusive results are not listed. The source made the active and inactive calls.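 Rule for the calls: active = compound lowering the normal-ribosome reporter at least twice as much as the humanized-ribosome reporter, growth loss under a set limit; inconclusive = no clear call, values can overlap the other calls; inactive = the rest.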

`CC(=O)Nc1ccc(Nc2nc(C)c([N+](=O)[O-])c(N(C)c3ccccc3)n2)cc1`: the AC50 is > 100 µM (inactive). `CCC(=O)c1ccc(OCC(=O)Nc2nc(C)cs2)cc1`: the AC50 was > 100 µM (inactive). The value for `CS(=O)(=O)c1cccc(C(=O)Nc2cccc(-c3nc4ccccc4[nH]3)c2)c1` was > 100 µM (inactive); that for `COc1cc(NC(=O)c2ccc([N+](=O)[O-])o2)ccc1NC(=O)c1ccco1` was > 100 µM (inactive); that for `CC1=Nc2cc(C(=O)NCC3CCCO3)ccc2Sc2ccc(Br)cc21` (stereo not given) was > 100 µM (inactive).

`COC(=O)C(Cc1csc2ccc(Cl)cc12)NC(=O)c1ccc(Cl)cc1` (stereo not given): the AC50 is > 100 µM (inactive). The result for `CCOC(=O)c1c(CS(=O)(=O)c2ccccc2)n(C)c2cc(Br)c(O)cc12` reads > 100 µM (inactive); that for `CN(C)C(=O)C1C2NC(=S)N(c3cccc(Cl)c3)C1(C)Oc1ccc(Cl)cc12` (stereo not given), > 100 µM (inactive); that for `COc1cc(SC)ccc1C(=O)N1CCN(c2ccccc2F)CC1`, > 100 µM (inactive). The result for `O=C(Nc1cccc(O)c1)c1cc(-c2ccccc2Cl)on1` reads > 100 µM (inactive); that for `COc1ccc(C(=O)Nc2ccc3oc(Cc4ccc(Cl)cc4)nc3c2)cc1OC`, > 100 µM (inactive). The value for `Fc1cccc(Cc2c(-c3ccco3)nc3c4ccccc4ccn23)c1` was > 100 µM (inactive); that for `Cc1ccccc1-n1nnnc1SCCCC(=O)c1ccc(F)cc1` was > 100 µM (inactive); that for `Cc1cc(C(=O)COC(=O)c2ccc(Br)o2)c(C)n1C` was > 100 µM (inactive). `Cc1ccccc1OCC(O)Cn1c(NCc2ccco2)nc2c1c(=O)n(C)c(=O)n2C` (stereo not given): the AC50 is > 100 µM (inactive). The result for `COC(=O)COc1ccc(Cl)cc1C1Nc2ccccc2C(=O)N1c1ccc(OC)cc1` (stereo not given) reads > 100 µM (inactive); that for `O=C(O)c1ccc2c(c1)N(Cc1ccc(F)cc1)C(=O)c1ccccc1S2`, > 100 µM (inactive); that for `Nc1cc([N+](=O)[O-])ccc1Nc1ccc(O)cc1`, > 100 µM (inactive). The value for `Cc1ccsc1C(=O)OCC(=O)N1CCc2ccccc2C1` was > 100 µM (inactive); that for `COC(=O)c1cccc(CN2C(=O)SC(Nc3ccc(C)cc3)C2=O)c1` (stereo not given) was > 100 µM (inactive); that for `COc1ccc2nc(SCC(=O)Nc3ccccc3)[nH]c2c1` was > 100 µM (inactive). The value for `CCOc1ccccc1/C=C/c1cc(C(=O)O)c2ccccc2n1` was > 100 µM (inactive); that for `N#Cc1ccsc1NC(=O)CSc1nnnn1-c1ccc(O)cc1` was > 100 µM (inactive).

Turning to `CCOc1ccc(NC(=O)CN(C)CC(=O)Nc2ccc(Br)cc2F)cc1OCC`, the AC50 is > 100 µM (inactive). The result for `O=[N+]([O-])c1cccnc1N1CCN(c2ccc(F)cc2)CC1` reads > 100 µM (inactive); that for `CCCCc1ccc(S(=O)(=O)Nc2ccc(C)c(NS(C)(=O)=O)c2)cc1`, > 100 µM (inactive). The result for `Cc1csc(SCc2nc3scc(-c4ccccc4)c3c(=O)[nH]2)n1` reads > 100 µM (inactive). Regarding `CC(C)(CC(=O)O)CC(=O)NCc1c(Cl)cccc1Sc1ccc(Cl)cc1`, the AC50 was > 100 µM (inactive). The result for `Cc1ccc(S(=O)(=O)Nc2ccccc2CNc2cccc(C)n2)cc1` reads > 100 µM (inactive); that for `Cc1ccc(C(=O)OCC(=O)c2c[nH]c3ccccc23)cc1NC(=O)c1ccco1`, > 100 µM (inactive); that for `COC(=O)c1c(-c2ccc(OC)cc2)sc2cc(OC)c(OC)cc12`, > 100 µM (inactive). Take `COc1ccccc1Cn1c(=S)[nH]c2ccc(F)cc2c1=O`: the AC50 was > 100 µM (inactive). With `COc1ccc(-c2csc(NC(=O)CC(NC(C)=O)c3ccccc3)n2)cc1OC` (stereo not given), the AC50 is > 100 µM (inactive). Regarding `COc1ccc(CCNc2nc(-c3ccncc3)cs2)cc1OC`, the AC50 is > 100 µM (inactive). Regarding `O=C(O)c1ccccc1NC(=O)C(c1ccccc1)c1ccccc1`, the AC50 was > 100 µM (inactive). Regarding `O=C(CCCn1c(=S)[nH]c2ccsc2c1=O)Nc1ccc2c(c1)OCCO2`, the AC50 is > 100 µM (inactive).

As for `COc1ccc(C(=O)Cn2c(C)nc([N+](=O)[O-])c2Br)cc1`, the AC50 was > 100 µM (inactive). As to `Cc1ccc2oc(C(=O)N(CCO)Cc3ccccc3)c(C)c2c1`, the AC50 was > 100 µM (inactive). The result for `COc1ccc(NC(=O)Nc2cccc3c2O[C@@H](CN(C)S(=O)(=O)c2ccc(Cl)cc2)[C@H](C)CN([C@H](C)CO)C3=O)cc1` reads > 100 µM (inactive); that for `COc1ccc(CNC(=O)Cc2cn(C)c3ccccc23)c(OC)c1`, > 100 µM (inactive). As to `FC(F)(F)c1ccc(Cl)c(-n2c(Cc3cccs3)n[nH]c2=S)c1`, the AC50 was > 100 µM (inactive).

As for `Cc1cc(NC(=O)CS(=O)(=O)c2cn(Cc3cccc(Br)c3)c3ccccc23)no1`, the AC50 was > 100 µM (inactive). For `CCN(c1ccccc1)S(=O)(=O)c1ccc(OC)c(OC)c1`, the AC50 is > 100 µM (inactive). The value for `COc1ccc(-c2ccc3ccccc3n2)cc1OC` was > 100 µM (inactive); that for `Cc1cnc(NC(=O)Cc2c[nH]c3ccccc23)s1` was > 100 µM (inactive). The value for `CCOc1cccc(-c2cc(-c3n[nH]c(=S)n3CC)c3ccccc3n2)c1` was > 100 µM (inactive); that for `CCc1ccc(NC(=O)CCc2c(C)nn(-c3ccc(N4CCCCC4)nn3)c2C)cc1` was > 100 µM (inactive); that for `O=C(CSc1nc(C2CCCCC2)nc2ccccc12)N1CCCC1` was > 100 µM (inactive). The result for `COc1ccc(Br)c(-c2nc(CS(=O)(=O)c3ccc(F)cc3)no2)c1` reads > 100 µM (inactive); that for `CSc1ccccc1NC(=O)c1ccccc1N(Cc1ccccc1)S(C)(=O)=O`, > 100 µM (inactive). Turning to `COc1ccc(C(=O)NCCc2ccccn2)cc1S(=O)(=O)Nc1ccc(Br)cc1`, the AC50 is > 100 µM (inactive). The result for `O=C(Cn1c2[n+](c3ccc(C(F)(F)F)cc31)CCCCC2)c1ccc2c(c1)OCCO2` reads > 100 µM (inactive); that for `COc1ccc(Nc2nc(N)c([N+](=O)[O-])c(N3CCCC3)n2)cc1`, > 100 µM (inactive); that for `O=C(CN1CCc2ccccc2C1)Nc1ccc(F)cc1F`, > 100 µM (inactive). With `O=C(Nc1ccc2nc3n(c(=O)c2c1)CCCCC3)c1c(F)ccc([N+](=O)[O-])c1F`, the AC50 was > 100 µM (inactive).

For the compound `O=C(c1cc(C(=O)N2CCOCC2)c2nc3ccccc3n2c1)c1cc(Cl)cc(Cl)c1O`, the AC50 was > 100 µM (inactive). The value for `CCC(=O)Nc1sc(Cc2ccc3c(c2)OCO3)c(C)c1C(N)=O` was > 100 µM (inactive). Consider `Clc1ccc(-c2nc3ccc(Br)cn3c2Cc2ccsc2)cc1`, for which the AC50 was > 100 µM (inactive). The value for `O=C(NCc1ccccc1)c1nc(S(=O)(=O)Cc2ccccc2)ncc1Cl` was > 100 µM (inactive). The result for `O=C(Nc1ccc(C(=O)Nc2ccccc2Cl)cc1)c1cccnc1` reads > 100 µM (inactive); that for `COc1cccc2c1Oc1cc([N+](=O)[O-])cc(N(C)C(C)=O)c1C=C2`, > 100 µM (inactive); that for `CN(CCOc1ccccc1)S(=O)(=O)c1ccccc1C#N`, > 100 µM (inactive). As for `O=S(=O)(c1ccccc1)N1C[C@H]2[C@@H](c3ccccc31)[C@@H](CO)N2Cc1ccccc1`, the AC50 is > 100 µM (inactive).

Regarding `CC(C)(C)C1CCC(OCC(O)CN2CCN(c3ccccn3)CC2)CC1` (stereo not given), the AC50 is > 100 µM (inactive). With `COc1ccc(NC(=O)CN(c2ccccc2)S(=O)(=O)c2ccccc2)c(OC)c1`, the AC50 was > 100 µM (inactive). The value for `COC(=O)c1c(NC(=O)c2ccccc2C(=O)O)sc2c1CCC2` was > 100 µM (inactive); that for `C=CCn1c(-c2cc3cccc(OC)c3o2)n[nH]c1=S` was > 100 µM (inactive); that for `Cc1cccc(-c2ccc([C@H]3[C@@H](CO)N4CCCCN(S(=O)(=O)c5ccccc5C)C[C@H]34)cc2)c1` was > 52 µM (inactive). Consider `Cc1cc(OCCCCOc2ccc(S(N)(=O)=O)c(C)c2)ccc1S(N)(=O)=O`, for which the AC50 was > 100 µM (inactive). The result for `O=C(O)CCN(Cc1ccccc1)S(=O)(=O)c1ccc(Cl)cc1F` reads > 100 µM (inactive); that for `CC(=O)c1c(C)[nH]c(C(=O)Nc2nc(C)cs2)c1C`, > 100 µM (inactive); that for `O=C(CCCSc1nc2ccccc2s1)NCc1ccc2c(c1)OCO2`, > 100 µM (inactive). Take `CCCCC(=O)N1CCN(c2nc3ccc(Br)cc3s2)CC1`: the AC50 was > 100 µM (inactive).

In the case of `CN(c1ccccc1)S(=O)(=O)c1cccc(C(=O)OCC(=O)NCc2ccco2)c1`, the AC50 was > 100 µM (inactive). As to `CCN(CC)CCN(C(=O)C1CCCCC1)c1nc2cc3c(cc2s1)OCO3`, the AC50 was > 100 µM (inactive).

For `CCCN(CC1CC1)C(=O)CSc1ncnc2sccc12`, the AC50 was > 100 µM (inactive). On to `COc1ccc2[nH]cc(CCNC(=O)C3CC(=O)N(c4ccc(Cl)cc4)C3)c2c1` (stereo not given), for which the AC50 was > 100 µM (inactive). The value for `CCOc1ccc(S(=O)(=O)Nc2ccc(S(=O)(=O)N3CCCC3)cc2)cc1` was > 100 µM (inactive). The value for `Cc1oc(-c2ccc(-c3ccccc3)cc2)nc1CN(C)C1CCOC1` (stereo not given) was > 100 µM (inactive). The value for `O=C(Cc1coc2cc(O)ccc12)N1CCN(S(=O)(=O)c2ccc(Br)cc2)CC1` was > 100 µM (inactive). Take `CC(=O)Oc1ccc(N(C(C)=O)S(=O)(=O)c2ccc(C)cc2)c2ccccc12`: the AC50 was > 100 µM (inactive).

As to `O=C(c1ccc(-n2cccn2)cc1)N1CCc2ccccc2C1`, the AC50 is > 100 µM (inactive).

As to `O=S(=O)(NC1c2cccc3cccc(c23)C1Sc1ncccn1)c1ccccc1` (stereo not given), the AC50 is > 100 µM (inactive).

Consider `COc1ccc(-c2noc(=O)n2Cc2ccccc2Cl)cc1`, for which the AC50 is > 100 µM (inactive).

Take `NS(=O)(=O)c1cccc(NC(=O)CSc2nnc(-c3ccccc3F)n2C2CC2)c1`: the AC50 is > 100 µM (inactive).
